Experiments:
[1] = tested on: phospho-ERK in MDA-MB-231 cells; experiment: Phospho-ERK Cytoblot Assay with MDA-MB 231 cells; assay type: cell-based; conditions: Homo sapiens, 1 hour compound incubation, phospho-p44/42 MAP kinase (Thr202/Tyr204)
From the text: The utility of the compounds of the present invention can also be illustrated, for example, by their activity in the phosph-ERK Assay described below. Growth-factor induction of the RAS/MEK/ERK signaling pathway leads to the induction of phosphorylation of a number of proteins including phospho-ERK (See C. J. Marshall, MAP kinase kinase kinase, MAP kinase kinase and MAP kinase, Current Opinions in Genetic Development, 1994, 4: p. 82-89). The importance of this pathway in cancer biology has been recognized in the art. Activation of the RAS signaling pathway is an important mechanism by which cancer develops (R. Herrera, et al, Unraveling the complexities of the Raf/MAP kinase pathway for pharmacological intervention, Trends Mol. Med., 2002, 8: p. S27-31). Mutational activation of RAS or downstream effectors as well as growth factor induction of this pathway leads to increased tumor cell proliferation and survival (A. A. Adjei, Blocking oncogenic RAS signaling for cancer therapy, J. Natl. Cancer Inst., 2001, 93(14): p. 1062-1074; J Schlessinger, Cell signaling by receptor tyrosine kinases, Cell, 2000, 103: p. 211-225). Phospho-ERK Cytoblot Assay Protocol with MDA-MB 231 Cells MDA-MB-231 cells in log phase were plated at 25,000 cells/well in 96-well opaque plates (Falcon, USA Cat # 353296) in 100 μL RPMI medium containing 10% (w/v) FBS, and incubated overnight at 37° C. in 5% CO2 incubator. The following day, the growth medium was removed from the plate by aspiration and replaced with RPMI medium containing 0.1% BSA and example compounds diluted to generate final concentrations of 0.0, 0.001, 0.003, 0.01, 0.03, 0.1, 0.3, 1 and 3 μM. Cells were incubated with compound for 1 hour at 37° C. in a 5% CO2 incubator. The media was then removed from the plate by aspiration and the cells were washed once with 180 μL/well cold Tris Buffered Saline (TBS). After removal of the wash buffer, the cells were fixed by adding 180 μL of cold 3.7% (v/v) formaldehyde in TBS to each well for 1 hour at 4° C. After removal of the formaldehyde, the cells were treated with the addition of 60 μL of −20° C. methanol to each well for 5 minutes at 4° C. The methanol was removed and the cells were washed with 180 μL/well of 5% (w/v) BSA in TBS. To block non-specific antibody binding sites, each well was treated with 180 μL/well 5% BSA (w/v) in TBS for thirty minutes at room temperature. After removal of the blocking buffer, 50 μL of an anti-phospho-p44/42 MAP kinase (Thr202/Tyr204) rabbit polyclonal antibody (Cell Signaling, USA Cat # 9101) was added to each well at a dilution of 1:1000 in 5% (w/v) BSA in TBS, and the plate was incubated at 4° C. overnight. Plates were then washed three times with 300 μL/well TBS at room temperature. The plates were then incubated with 50 μL of Horseradish peroxidase (HRP)-conjugated goat-anti-rabbit antibody (Amersham, USA Cat. # NA934V) at a dilution of 1:1000 in 5% BSA-TBS at room temperature for 1 hr. After washing the plate three times with 300 μL/well TBS, 60 μL of Enhanced Chemiluminescence (ECL) reagent (Amersham, USA Cat# RPN2209) was added to each well and incubated at room temperature for five minutes. The plate was then read on a Perkin Elmer Victor 5 Multilabel Counter (#1420-0421). […] The utility of the compounds of the present invention can also be illustrated, for example, by their activity in the flk-1 (murine VEGFR2) Assay described below. The VEGF-VEGFR2 signaling pathway has been extensively characterized as an important regulator of angiogenesis and tumor angiogeneisis (See G. Yancopoulos et al, Vascular-specific growth factors and blood vessel formation, Nature, 2000, 407: p. 242-248; D. Shweiki et al, Induction of vascular endothelial growth factor expression by hypoxia and by glucose deficiency in multi cell spheroids: Implications for tumor angiogenesis, Proc. Natl. Acad. Sci, 1995, 92: p. 768-772). Inhibition of tumor cell growth by blocking this pathway has been well documented in the art. […]

[2] = tested on: P-AKT/PKB in H209 small cell lung carcinoma cells; experiment: P-AKT/PKB Cytoblot Assay with H209 cells (SCF-stimulated); assay type: cell-based; conditions: Homo sapiens, NCI-H209, 1 hour compound incubation, SCF 25 ng/mL for 5 minutes, p-(S473) AKT
From the text: The utility of the compounds of the present invention can be illustrated, for example, by their activity in the P-AKT/PKB Cytoblot Assay described below. The involvement of the P-AKT/PKB[PI3K/AKt] pathway as a target for cancer chemotherapy has been recognized in the art. For example, see F. Chang et al, Involvement of PI3K/Akt pathway in cell cycle progression, apoptosis, and neoplastic transformation: a target for cancer chemotherapy, Leukemia, 2003, 17: p. 590-603; K. A. West et al, Activation of the PI3K/Akt pathway and chemotherapeutic resistance, Drug Resistance Updates, 2002, 5: p. 234-248; and P. Sen et al, Involvement of the Akt/PKB signaling pathway with disease processes, Molecular and Cellular Biochemistry, 2003, 253: p. 241-246.
P-AKT/PKB Cytoblot Assay Protocol with H209 Cells
H209 small cell lung carcinoma cells in log phase were plated at 50,000 cells/well in 96-well poly-lysine coated, clear bottom/black-sided plates (Becton-Dickinson, USA Cat # 354640) in 100 Ill RPMI medium containing 0.1% (w/v) BSA, and incubated overnight at 37° C. in 5% CO2 incubator. The following day, compounds (10 mM stock solutions in DMSO) were added to the plates to generate final concentrations of 0.0, 0.01, 0.03, 0.1, 0.3, 1.0, 3.0 and 10 μM for IC50 determinations and incubated for 1 hour at 37° C. Cells were then left untreated or stimulated with Stem Cell Factor (SCF: Biosource Cat # PHC2116) at a final concentration of 25 ng/mL for 5 minutes at 37° C. in 5% CO2 incubator. The media was then removed using a vacuum manifold and the cells were washed once with Tris Buffered Saline (TBS). Cells were then fixed by adding 200 μl of cold 3.7% (v/v) formaldehyde in TBS to each well for 15 minutes at 4° C. After removal of the formaldehyde, the cells were treated with the addition of 50 μl of methanol (at −20° C.) to each well for 5 minutes. After removal of the methanol, 200 μl of 1% (w/v) BSA in TBS was added to each well to block non-specific antibody binding sites and the plate was incubated at room temperature for 30 minutes.
After removal of the blocking buffer, 50 μl of p-(S473) AKT rabbit polyclonal antibody (Cell Signaling, USA Cat # 9277S) was added at a dilution of 1:250 in 0.1% (w/v) BSA in TBS, and the plate was incubated at room temperature for 1 hour. Plates were then washed 3 times with cold TBS containing 0.05% (v/v) Tween 20 (TBS-T) and 100 μl of Horseradish peroxidase (HRP)-conjugated goat-anti-rabbit antibody (Amersham, USA Cat # NA934V) at a dilution of 1:250 in TBS-T was added and the plate was incubated at room temperature for 1 h. After washing with ice-cold TBS-T four times, 100 μl of Enhanced Chemiluminescence (ECL) reagent (Amersham, USA Cat# RPN2209) was added to each well and mixed on a mini-orbital shaker for 1 min. The plate was then read on a Perkin Elmer Victor 5 Multilabel Counter (#1420-0421).

[3] = target: T1, Flk-1 (murine VEGFR-2) kinase domain (Mus musculus, UniProt P35918); experiment: Flk-1 (murine VEGFR-2) Biochemical Assay (TR-FRET); conditions: 10 μM ATP, 7 nM Flk-1 (kinase domain)
T1 construct: 7 nM Flk-1 (kinase domain)
T1 sequence (P35918 832-1160 limits assumed): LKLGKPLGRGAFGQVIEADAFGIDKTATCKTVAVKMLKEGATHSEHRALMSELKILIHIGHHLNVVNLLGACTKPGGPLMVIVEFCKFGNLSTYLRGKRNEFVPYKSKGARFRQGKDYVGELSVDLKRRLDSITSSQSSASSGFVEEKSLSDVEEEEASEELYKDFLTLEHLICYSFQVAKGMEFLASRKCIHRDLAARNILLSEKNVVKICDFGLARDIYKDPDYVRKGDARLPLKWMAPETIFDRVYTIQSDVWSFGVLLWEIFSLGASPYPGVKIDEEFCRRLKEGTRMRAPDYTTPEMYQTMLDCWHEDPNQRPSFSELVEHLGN

**Q.** Which results are given for `CC(=O)OCC(=O)Nc1cc(CNc2ncsc2C(=O)Nc2ccc3c(c2)OC(F)(F)O3)ccn1` [Example 13, 2-[(4-{[(5-{[(2,2-difluoro-1,3-benzodioxol-5-yl)amino]carbonyl}-1,3-thiazol-4-yl)amino]methyl}pyridin-2-yl)amino]-2-oxoethyl acetate]?
**A.** IC50 [1]: < 3000 nM; IC50 [2]: < 500 nM; IC50 [3]: < 500 nM

**Q.** With `CNC(=O)c1cc(CNc2ncsc2C(=O)Nc2ccc3c(c2)OC(F)(F)C(F)(F)O3)ccn1` [Example 2, N-methyl-4-{[(5-{[(2,2,3,3-tetrafluoro-2,3-dihydro-1,4-benzodioxin-6-yl)amino]carbonyl}-1,3-thiazol-4-yl)amino]methyl}pyridine-2-carboxamide] as the compound, how does the IC50 [1] read?
**A.** < 3000 nM

**Q.** What about the IC50 [2] of the same compound?
**A.** < 500 nM

**Q.** What about the IC50 [3] of the same compound?
**A.** < 500 nM

**Q.** `CCNC(=O)Nc1cc(CNc2ncsc2C(=O)Nc2ccc3c(c2)OC(F)(F)O3)ccn1` [Example 17, N-(2,2-difluoro-1,3-benzodioxol-5-yl)-4-{[(2-{[(ethylamino)carbonyl]amino}pyridin-4-yl)methyl]amino}-1,3-thiazole-5-carboxamide] was tested. Which IC50 [1] did it give?
**A.** < 3000 nM

**Q.** What about the IC50 [2] of the same compound?
**A.** < 500 nM

**Q.** And the IC50 [3]?
**A.** < 500 nM

**Q.** With `CC(=O)Nc1cc(CNc2ncsc2C(=O)Nc2ccc3c(c2)OC(F)(F)C(F)(F)O3)ccn1` [Example 11, 4-({[2-(acetylamino)pyridin-4-yl]methyl}amino)-N-(2,2,3,3-tetrafluoro-2,3-dihydro-1,4-benzodioxin-6-yl)-1,3-thiazole-5-carboxamide] as the compound, how does the IC50 [1] read?
**A.** < 3000 nM

**Q.** And the IC50 [2]?
**A.** < 500 nM

**Q.** What about the IC50 [3] of the same compound?
**A.** < 500 nM

**Q.** Which results are given for `CC(=O)Nc1cc(CNc2ncsc2C(=O)Nc2ccc3c(c2)OC(F)(F)O3)ccn1` [Example 10, 4-([{2-(acetylamino)pyridin-4-yl]methyl}amino)-N-(2,2-difluoro-1,3-benzodioxol-5-yl)-1,3-thiazole-5-carboxamide]?
**A.** IC50 [1]: < 3000 nM; IC50 [2]: < 500 nM; IC50 [3]: < 500 nM

**Q.** For `COCCOCC(=O)Nc1cc(CNc2ncsc2C(=O)Nc2ccc3c(c2)OC(F)(F)C(F)(F)O3)ccn1` [Example 9, 4-{[(2-{[(2-methoxyethoxy)acetyl]amino}pyridin-4-yl)methyl]amino}-N-(2,2,3,3-tetrafluoro-2,3-dihydro-1,4-benzodioxin-6-yl)-1,3-thiazole-5-carboxamide], which IC50 [1] is on record?
**A.** < 3000 nM

**Q.** What about the IC50 [2] of the same compound?
**A.** < 500 nM

**Q.** And the IC50 [3]?
**A.** < 500 nM
